Results as given in article PMC11904604, “MRM-based LC-MS method for accurate C-peptide quantitation” (Journal of Mass Spectrometry and Advances in the Clinical …, 2025).

Test: in vitro
Settings: human, serum

SMILES: CC(C)C[C@H](NC(=O)[C@H](C)NC(=O)[C@H](CC(C)C)NC(=O)[C@@H]1CCCN1C(=O)[C@H](CCC(N)=O)NC(=O)[C@H](CC(C)C)NC(=O)[C@H](CO)NC(=O)CNC(=O)[C@H](C)NC(=O)CNC(=O)[C@@H]1CCCN1C(=O)CNC(=O)CNC(=O)CNC(=O)[C@H](CC(C)C)NC(=O)[C@H](CCC(=O)O)NC(=O)[C@@H](NC(=O)[C@H](CCC(N)=O)NC(=O)CNC(=O)[C@@H](NC(=O)[C@H](CCC(N)=O)NC(=O)[C@H](CC(C)C)NC(=O)[C@H](CC(=O)O)NC(=O)[C@H](CCC(=O)O)NC(=O)[C@H](C)NC(=O)[C@@H](N)CCC(=O)O)C(C)C)C(C)C)C(=O)N[C@@H](CCC(=O)O)C(=O)NCC(=O)N[C@@H](CO)C(=O)N[C@@H](CC(C)C)C(=O)N[C@@H](CCC(N)=O)C(=O)O [C-peptide]
- metabolised at 48 h, 0.53 nmol/L: 2.4%
- metabolised at 48 h, 2.88 nmol/L: 6.3%
